Laboratory results taken from ChEMBL document CHEMBL1201862, “PubChem BioAssay data set” (2004).
Active and inactive are the calls of the source.

Experiments:
cells [1] = format: functional, cell-based
[2] = target: T1, Trace amine-associated receptor 1 (Homo sapiens, UniProt Q96RJ0); assay: Fluorescence-based cell-based high throughput dose response assay to identify agonists of the human trace amine associated receptor 1 (TAAR1).; format: functional
T1 sequence (Q96RJ0 whole entry): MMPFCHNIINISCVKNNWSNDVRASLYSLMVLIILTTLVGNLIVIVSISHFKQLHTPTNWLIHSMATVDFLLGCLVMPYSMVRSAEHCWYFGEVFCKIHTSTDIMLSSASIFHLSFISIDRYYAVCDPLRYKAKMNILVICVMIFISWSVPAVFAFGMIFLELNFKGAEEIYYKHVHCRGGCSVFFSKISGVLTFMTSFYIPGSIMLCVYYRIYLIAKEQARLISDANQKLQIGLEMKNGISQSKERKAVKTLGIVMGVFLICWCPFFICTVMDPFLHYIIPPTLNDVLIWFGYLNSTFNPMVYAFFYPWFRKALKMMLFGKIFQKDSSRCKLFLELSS

cells [3] = format: functional, cell-based; remark: listed apart in the source
[4] = target: T1, Trace amine-associated receptor 1; assay: Counterscreen for agonists of the human trace amine associated receptor 1 (hTAAR1): Fluorescence-based cell-based high throughput dose response assay to identify hTAAR1 agonist that also desensitize TAAR1 receptor response.; format: functional
[5] = Luminescence Cell-Based Dose Retest to Confirm Inhibitors of Cancer Stem Cells. [Related pubchem assays (depositor defined):AID2717, AID2721]; format: functional; settings: Homo sapiens
[6] = growth suppression of beta-catenin-knockout colon cells, dose response, cell-based, HCT116, human colon tumor (AID 1045); format: functional;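 note: HCT116 colon tumor cells with beta catenin knocked out; cells exposed to compound for 60 hours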
[7] = growth suppression of PTEN-null colon cells, dose response, cell-based, HCT116 PTEN knockout (AID 1047); format: functional;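 note: HCT116 colon tumor cells with PTEN knocked out; cells exposed to compound for 60 hours before readout; potency for loss of cell viability measured by luminescence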
[8] = target: T2, Mannose-6-phosphate isomerase (Homo sapiens, UniProt P34949); assay: human PMI inhibitors, high substrate, primary screen, biochemical, fluorescence intensity, high mannose 6-phosphate (AID 1220)
T2 sequence (P34949 whole entry): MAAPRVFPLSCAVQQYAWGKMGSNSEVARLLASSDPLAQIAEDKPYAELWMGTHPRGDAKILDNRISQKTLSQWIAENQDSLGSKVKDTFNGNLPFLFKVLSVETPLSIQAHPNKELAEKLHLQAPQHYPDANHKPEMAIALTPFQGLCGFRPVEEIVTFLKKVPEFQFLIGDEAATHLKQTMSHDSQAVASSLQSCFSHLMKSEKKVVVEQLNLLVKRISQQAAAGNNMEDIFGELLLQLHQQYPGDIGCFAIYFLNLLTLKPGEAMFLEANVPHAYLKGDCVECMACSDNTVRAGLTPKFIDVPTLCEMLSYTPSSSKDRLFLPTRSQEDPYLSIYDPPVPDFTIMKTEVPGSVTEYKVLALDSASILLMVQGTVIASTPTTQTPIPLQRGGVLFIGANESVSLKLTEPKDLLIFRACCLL

[9] = target: T3, RNA-binding protein pos-1 (Caenorhabditis elegans, UniProt G5EF15); assay: inhibitors of POS-1/mex-3 RNA binding, dose response, biochemical, fluorescence polarization (AID 1964);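 note: purified POS-1 fused to maltose binding protein made in E. coli; potency of compounds blocking POS-1 binding to fluorescent RNA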
T3 sequence (G5EF15 whole entry): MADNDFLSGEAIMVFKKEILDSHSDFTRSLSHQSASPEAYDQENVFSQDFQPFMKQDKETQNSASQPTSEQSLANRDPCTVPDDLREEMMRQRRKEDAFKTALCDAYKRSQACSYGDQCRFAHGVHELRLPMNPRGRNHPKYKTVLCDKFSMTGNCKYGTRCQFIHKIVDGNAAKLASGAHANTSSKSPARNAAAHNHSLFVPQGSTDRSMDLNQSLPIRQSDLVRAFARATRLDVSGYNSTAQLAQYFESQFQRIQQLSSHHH

[10] = target: T4, Zinc finger protein mex-5 (Caenorhabditis elegans, UniProt Q9XUB2); assay: MEX-5/TCR-2 RNA interaction inhibitors, dose response, biochemical, C. elegans, fluorescence polarization (AID 1960)
T4 sequence (Q9XUB2 whole entry): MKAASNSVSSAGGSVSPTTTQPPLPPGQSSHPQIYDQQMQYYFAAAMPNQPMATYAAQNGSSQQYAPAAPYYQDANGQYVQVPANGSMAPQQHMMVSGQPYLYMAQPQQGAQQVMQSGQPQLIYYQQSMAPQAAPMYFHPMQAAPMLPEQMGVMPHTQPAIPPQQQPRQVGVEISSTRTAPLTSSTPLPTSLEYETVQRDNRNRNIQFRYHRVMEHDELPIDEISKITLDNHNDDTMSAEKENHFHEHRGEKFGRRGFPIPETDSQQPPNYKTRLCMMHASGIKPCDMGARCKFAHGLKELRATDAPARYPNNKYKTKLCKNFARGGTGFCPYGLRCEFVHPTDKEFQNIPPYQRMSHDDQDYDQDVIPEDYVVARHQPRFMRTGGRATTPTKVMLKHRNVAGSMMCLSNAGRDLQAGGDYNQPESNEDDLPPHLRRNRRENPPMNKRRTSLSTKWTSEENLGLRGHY

Genome polyprotein = Genome polyprotein (dengue virus type 2, UniProt P29990); assay: Dengue-2 NS5 methyltransferase inhibitors, primary screen, biochemical, confirmation dose response (AID 588689); format: functional
[11] = target: T5, Replicative DNA helicase DnaB (Mycobacterium tuberculosis, UniProt P9WMR3); assay: DnaB intein splicing inhibitors, dose response, biochemical, cell-free fluorescence (AID 449749); format: functional
T5 sequence (P9WMR3 whole entry): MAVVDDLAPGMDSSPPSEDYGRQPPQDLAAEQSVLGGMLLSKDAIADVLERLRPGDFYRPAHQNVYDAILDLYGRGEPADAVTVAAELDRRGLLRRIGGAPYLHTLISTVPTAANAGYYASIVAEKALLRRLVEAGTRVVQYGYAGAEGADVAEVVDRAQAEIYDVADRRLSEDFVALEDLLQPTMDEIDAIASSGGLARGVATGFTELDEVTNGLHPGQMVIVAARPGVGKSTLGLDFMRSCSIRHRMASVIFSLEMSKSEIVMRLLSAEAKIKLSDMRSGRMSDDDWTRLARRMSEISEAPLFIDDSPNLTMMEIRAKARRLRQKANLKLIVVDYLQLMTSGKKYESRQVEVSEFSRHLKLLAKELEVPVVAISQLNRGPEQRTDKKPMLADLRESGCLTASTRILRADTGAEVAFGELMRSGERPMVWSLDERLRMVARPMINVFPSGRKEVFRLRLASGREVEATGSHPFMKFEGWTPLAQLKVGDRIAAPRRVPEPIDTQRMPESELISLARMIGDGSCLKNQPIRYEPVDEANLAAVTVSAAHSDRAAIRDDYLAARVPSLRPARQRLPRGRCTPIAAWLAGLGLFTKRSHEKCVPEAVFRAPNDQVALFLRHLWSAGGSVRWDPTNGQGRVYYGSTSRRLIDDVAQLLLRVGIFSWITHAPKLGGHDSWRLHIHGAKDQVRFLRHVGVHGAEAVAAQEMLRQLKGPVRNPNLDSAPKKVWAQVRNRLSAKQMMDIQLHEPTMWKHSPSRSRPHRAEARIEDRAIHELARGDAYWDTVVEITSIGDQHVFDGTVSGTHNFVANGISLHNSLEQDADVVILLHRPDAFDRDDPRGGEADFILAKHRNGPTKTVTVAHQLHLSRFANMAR

Protein RecA = target: T6, Protein RecA (Mycobacterium tuberculosis, UniProt P9WHJ3); assay: Fluorescence Cell-Free Homogeneous Dose Retest to Identify Inhibitors of RecA-Intein Splicing Activity. [Related pubchem assays (depositor defined):AID2097, AID2223, AID489010, AID492950]; format: functional
T6 sequence (P9WHJ3 whole entry): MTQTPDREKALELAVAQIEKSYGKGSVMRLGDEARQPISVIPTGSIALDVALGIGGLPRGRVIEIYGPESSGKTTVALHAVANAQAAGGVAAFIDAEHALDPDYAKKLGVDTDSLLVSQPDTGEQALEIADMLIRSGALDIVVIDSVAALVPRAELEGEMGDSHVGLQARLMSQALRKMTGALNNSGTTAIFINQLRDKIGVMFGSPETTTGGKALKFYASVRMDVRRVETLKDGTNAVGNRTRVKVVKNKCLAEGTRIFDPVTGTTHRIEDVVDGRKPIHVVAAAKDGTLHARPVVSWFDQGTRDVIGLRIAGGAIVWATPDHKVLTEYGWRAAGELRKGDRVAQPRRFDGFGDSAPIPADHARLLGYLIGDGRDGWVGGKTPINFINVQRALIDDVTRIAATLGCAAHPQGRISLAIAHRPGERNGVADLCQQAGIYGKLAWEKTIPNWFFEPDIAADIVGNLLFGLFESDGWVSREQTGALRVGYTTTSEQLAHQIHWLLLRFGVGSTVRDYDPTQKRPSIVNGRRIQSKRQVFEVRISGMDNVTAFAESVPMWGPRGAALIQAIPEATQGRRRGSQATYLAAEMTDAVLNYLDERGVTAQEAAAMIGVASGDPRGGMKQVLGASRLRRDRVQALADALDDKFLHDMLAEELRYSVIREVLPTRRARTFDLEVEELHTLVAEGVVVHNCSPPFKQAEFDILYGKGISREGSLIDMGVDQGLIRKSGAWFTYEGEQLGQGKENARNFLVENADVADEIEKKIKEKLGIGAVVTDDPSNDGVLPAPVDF

Protein skinhead-1 = target: T7, Protein skinhead-1 (Caenorhabditis elegans, UniProt P34707); format: functional
T7 sequence (P34707 whole entry): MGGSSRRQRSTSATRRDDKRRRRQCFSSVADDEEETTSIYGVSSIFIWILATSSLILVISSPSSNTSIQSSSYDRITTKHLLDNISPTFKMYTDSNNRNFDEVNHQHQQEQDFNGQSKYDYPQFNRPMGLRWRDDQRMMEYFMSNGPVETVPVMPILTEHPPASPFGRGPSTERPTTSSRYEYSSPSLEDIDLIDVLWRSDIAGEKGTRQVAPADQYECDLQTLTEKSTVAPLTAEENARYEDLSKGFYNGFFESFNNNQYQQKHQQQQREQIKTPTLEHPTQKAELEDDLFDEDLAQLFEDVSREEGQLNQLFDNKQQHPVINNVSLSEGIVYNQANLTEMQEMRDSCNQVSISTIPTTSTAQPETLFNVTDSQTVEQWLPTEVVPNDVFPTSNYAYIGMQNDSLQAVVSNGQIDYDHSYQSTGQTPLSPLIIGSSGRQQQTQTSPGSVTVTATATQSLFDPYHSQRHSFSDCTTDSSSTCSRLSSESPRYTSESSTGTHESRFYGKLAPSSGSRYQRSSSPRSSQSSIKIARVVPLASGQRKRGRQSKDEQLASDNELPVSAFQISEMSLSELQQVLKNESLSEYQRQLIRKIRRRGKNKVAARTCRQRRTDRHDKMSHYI

[12] = LGR2 antagonists, dose response, cell-based, HEK293, CRE-luciferase reporter, cherry pick, set 2 (AID 743343); format: functional;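 note: transfected cells were stimulated with diluted bursicon conditioned medium after compound addition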
[13] = MC4R antagonists, dose response, counter-screen for LGR2 antagonist project, cell-based, plate reader, cherry pick (AID 743444); format: functional;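 note: transfected HEK 293 cells stimulated with alpha-MSH peptide; potency of inhibitors of the alpha-MSH evoked signal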
H9c2 = assay: cells; format: functional, cell-based; settings: Rattus norvegicus, H9c2, Myocardium;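 note: confirmatory concentration-response retest of ultra-high-throughput screening hits for modulation of myocardial damage; cell death induced by hydrogen peroxide oxidative stress; compound pretreatment for 60 min then peroxide exposure for 2 h; potency is for protecting the cells against peroxide damage rather than for killing them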
[14] = off-target signal loss in HeLa-CEM21 co-culture – HeLa F-luc CTL cells, cherry-picked, counter-screen for HIV-1 Env fusion inhibitor project, dose response (AID 652040); format: functional, cell-based;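 note: potency for signal decrease marking cytotoxic or nonspecific inhibition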
[15] = inhibitors of clade B AD8 Env fusion, dose response, cell-based, cherry-pick (AID 652062); format: functional;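 note: luciferase signal from cell-cell fusion driven by HIV-1 clade B AD8 Env; potency is for inhibitors of fusion seen as a drop in luminescence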

Sequence of Genome polyprotein (P29990 2492-3391 limits assumed): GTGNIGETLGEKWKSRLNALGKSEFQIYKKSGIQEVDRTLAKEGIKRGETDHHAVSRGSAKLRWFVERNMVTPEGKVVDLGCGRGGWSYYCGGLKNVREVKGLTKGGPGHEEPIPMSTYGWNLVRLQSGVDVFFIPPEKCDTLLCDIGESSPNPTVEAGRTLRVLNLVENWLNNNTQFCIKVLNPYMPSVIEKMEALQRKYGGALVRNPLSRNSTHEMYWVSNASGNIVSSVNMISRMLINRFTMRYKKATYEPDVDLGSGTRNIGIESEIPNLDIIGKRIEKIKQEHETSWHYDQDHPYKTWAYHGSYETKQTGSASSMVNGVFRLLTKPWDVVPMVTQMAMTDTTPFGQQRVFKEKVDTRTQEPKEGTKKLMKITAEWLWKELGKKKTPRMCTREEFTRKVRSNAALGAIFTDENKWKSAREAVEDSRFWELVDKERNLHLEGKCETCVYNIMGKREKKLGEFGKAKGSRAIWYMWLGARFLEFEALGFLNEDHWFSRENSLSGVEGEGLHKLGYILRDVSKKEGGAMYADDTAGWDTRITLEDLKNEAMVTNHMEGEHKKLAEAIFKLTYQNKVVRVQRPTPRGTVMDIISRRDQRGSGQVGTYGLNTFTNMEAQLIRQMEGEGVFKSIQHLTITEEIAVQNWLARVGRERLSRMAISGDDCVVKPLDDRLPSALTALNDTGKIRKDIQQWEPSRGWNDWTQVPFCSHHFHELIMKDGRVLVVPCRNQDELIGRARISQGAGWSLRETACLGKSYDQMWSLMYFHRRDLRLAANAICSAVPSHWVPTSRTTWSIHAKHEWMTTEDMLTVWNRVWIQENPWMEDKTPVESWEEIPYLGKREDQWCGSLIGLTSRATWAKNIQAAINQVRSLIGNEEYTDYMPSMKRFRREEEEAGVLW

Compound	IC50 (cells [1])	EC50 [2]	EC50 (cells [3])	IC50 [4]	IC50 [8]	other results
O=C(NCCc1ccccc1)c1ccc(CS(=O)(=O)Cc2ccccc2F)o1	17.7 µM (inactive)	2.78 µM (active)	> 29.9 µM (inactive)	5.69 µM (active)	–	–
Cc1cccc(-c2cc3nc(C)cc(N4CC(C)CC(C)C4)n3n2)c1 (centres undefined)	> 29.9 µM (inactive)	7.1 µM (active)	> 29.9 µM (inactive)	> 29.9 µM (inactive)	–	AC50 [5]: 5.01 µM (active); EC50 [6]: 43.9 µM (active); EC50 [7]: 27.8 µM (active)
COC(=O)C1=C(C(=O)OC)SC(=C2C(=S)C(C)(C)N(C(=O)C(C)C)c3ccccc32)S1	–	–	–	–	7.38 µM (active)	–
Cc1nc(NCCc2ccccc2)c2nnn(Cc3ccccc3Cl)c2n1	> 29.9 µM (inactive)	0.59 µM (active)	> 29.9 µM (inactive)	3.51 µM (active)	–	–
COc1ccc(O)c(/C=N/c2sc(C)c(C)c2C#N)c1	–	–	–	–	> 50 µM (not active)	–
CCCn1c(O)c(C#N)c(C)c(CN2CCCC(C)C2)c1=O (centres undefined)	> 29.9 µM (inactive)	3.04 µM (active)	> 29.9 µM (inactive)	13 µM (inactive)	–	EC50 [9]: > 300 µM (inconclusive); EC50 [10]: 6.59 µM (active)
O=C(O)CC1S/C(=N/N=C/c2ccc(-c3ccccc3[N+](=O)[O-])o2)NC1=O (centres undefined)	–	–	–	–	> 50 µM (not active)	IC50 (Genome polyprotein): 89 µM (active); AC50 [11]: 12.1 µM (active); EC50 (Protein RecA): 4.31 µM (active)
NC(=O)C1CCN(c2oc(-c3ccccc3F)nc2S(=O)(=O)c2ccc(Cl)cc2)CC1	–	–	–	–	–	IC50 (Protein skinhead-1): > 100 µM (inactive)
Cc1ccc(-c2cc(C(=O)N3CCOCC3)no2)cc1	–	–	–	–	–	AC50 [12]: 2.95 µM (active); AC50 [13]: 2.81 µM (active)
Cc1cccc(NC2=NCC(=O)N2CCc2ccccc2)c1	> 29.9 µM (inactive)	0.866 µM (active)	> 29.9 µM (inactive)	7.06 µM (active)	–	–
CCC(=O)OCCNc1cc(SCCC(=O)OC)c2nonc2c1[N+](=O)[O-]	–	–	–	–	> 50 µM (not active)	AC50 [11]: 116 µM (active); IC50 (H9c2): 14.5 µM (active); EC50 (Protein RecA): 5.12 µM (active)
NC(Cc1ccc(F)cc1)c1csc(Nc2ccc(S(N)(=O)=O)cc2)n1 (centres undefined)	> 29.9 µM (inactive)	5.18 µM (active)	> 29.9 µM (inactive)	> 29.9 µM (inactive)	–	–
Cn1c(=O)oc2cc(S(=O)(=O)NCc3ccncc3)ccc21	–	–	–	–	–	AC50 [14]: 58.5 µM (active); AC50 [15]: 17.4 µM (active)
